Tests used:
[1] = system: women; assay: Clinical study with dydrogesterone as progestogen-only preparation (Example 3); type: in vivo, human; details: 20 mg dydrogesterone once a day, uninterrupted for 4 months, 8 women
Procedure: A clinical study with dydrogesterone as a progestogen-only preparation is conducted in 8 women who were selected on the basis of the criteria mentioned in Example 1. The 8 women receive a 20 mg dosage of dydrogesterone once a day, uninterruptedly during a period of 4 months.

[2] = compared with commercially used synthetic progestogens; cited from earlier work
[3] = system: humans; details: reported by Claassen et al., Acta Endocrinologica (1967); cited from earlier work
[4] = hormone replacement therapy with 17beta-estradiol dydrogesterone (Grisar et al. 1999); cited from earlier work
[5] = system: young healthy women; assay: Clinical study in contraception, sequential regimen (Example 1): vaginal ultrasonography, endogenous hormones, bleeding pattern; type: in vivo, human; details: 2 mg 17beta-estradiol days 1-14, then 10 mg dydrogesterone + 2 mg 17beta-estradiol days 15-28, single cycle
From the text: Women who participated ill the study described in this example were all selected on the basis that they were users of ‘high’ dose monophasic ethinyl estradiol-containing combined oral contraceptives. The reasons for applying this selection criterion was that there is a dose relationship between follicular development and ethinyl estradiol whether given alone or in combination with a progestogen, i.e. less follicular development in the presence of the higher dose. Participation of the females involved in the study started at a moment of (almost) complete suppression of follicular development. This condition is not met if a person has their first day of bleeding in a natural cycle, after a tablet-free interval, or immediately after a low-dose combined oral contraceptive. A clinical study in contraception was conducted in 9 young healthy women who previously used a monophasic oral contraceptive pill with at least 30 microgram of ethinyl estradiol. The women were administered 2 mg 17beta-estradiol during days 1-14 of the cycle. From days. 15 to 28 of the cycle 10 mg dydrogesterone combined with 2 mg 17beta-estradiol was administered. The participants were followed by vaginal ultrasonography and blood sampling for endogenous hormones to assess ovarian function (ovulation-inhibition). Vaginal bleeding pattern and feeling of well being were scored by the participants.

[6] = system: women; assay: Clinical study in contraception, combined ethinyl estradiol/dydrogesterone regimen (Example 2); type: in vivo, human; details: 30 μg ethinyl estradiol + 20 mg dydrogesterone daily for 24 days, then 4 days placebo; 8 women
Procedure: A clinical study in contraception is conducted in 8 women, who were selected on the basis of the criteria mentioned in Example 1, using 30 μg ethinyl estradiol and 20 mg dydrogesterone. The aforementioned dose is administered on a daily basis during 24 days, followed by a hormone-free period placebo's) of 4 days.

CC(=O)[C@H]1CC[C@H]2[C@@H]3C=CC4=CC(=O)CC[C@@]4(C)[C@@H]3CC[C@]12C [dydrogesterone, 9β,10α-pregna-4,6-diene-3,20-dione]
Irregular bleeding [1]: some unpredictable irregular bleeding | Menstrual flow [1]: reduction of the usual menstrual flow | Ovulation inhibition [1]: Ovulation is inhibited | Estrogenic, glucocorticoid, anabolic or androgenic properties [2]: does not exhibit estrogenic, glucocorticoid, anabolic or androgenic properties | Ovulation inhibition in humans [3]: does not inhibit ovulation in humans | Adverse effects on blood pressure [4]: no adverse effects on blood pressure | Ovulation inhibition (subjects with inhibition) ([5]; 9 women): 7 of the 9 | Intermenstrual bleeding ([5]; scored by participants): No intermenstrual bleeding was observed | Ovulation inhibition [6]: ovulation inhibition is achieved | Withdrawal bleeding [6]: Regular withdrawal bleeding occurs in all women

— patent publication US20040202713A1, “Means and method for hormonal contraception” (priority 2001, published 2004)
